Seven compounds from patent US20260256143A1, “HERBICIDAL COMPOSITION AND METHOD FOR CONTROLLING WEEDS” (Enko Chem, Inc., priority 2023, published 2026) can be followed below.

Like-named read-outs stand apart in the source and are kept apart here.

Experiment [1] deals with AMATU. The experiment can be described thus: Greenhouse post-emergence foliar test (Example 72). Format: in vivo, Amaranthus rudis. The note with it: Amaranthus tuberculatus, 336 h, read-out: % Visual growth inhibition (AMATU). The protocol: (§1) Compound 1 was tested at several doses for foliar weed control efficacy by itself or in combination with other herbicides.
(§2) The weed seeds were sown in 10″×20″ trays and propagated up to the transplanting stage which is 1-2 emerging leaves. One plant was then transplanted into 7×7×8 cm pots and sprayed with the compounds when plants reached the 3-4 true leaf stage for grass species or 10-15 cm for broadleaf species. The plants were propagated in a greenhouse with 26-28° C. day, 20-22° C. night temperature at 50-60%0 relative humidity and supplemental light using high pressure sodium grow lights when necessary. Three weeks after sowing, plants were sprayed with the test compound solution in a laboratory spray chamber fitted with 8003 even fan nozzle calibrated to deliver 187 L ha^−1 at 269 kPa. All treatments included the following inert ingredients in the final formulation; […] (AGRI-DEX®, Helena Agri), 2.5% Ammonium sulphate (w/v), and 0.1% Tween-20 (v/v). Plants were evaluated for percentage visual growth inhibition compared to treated control, 14 days after treatment (DAT).

Experiment [2] has as its system ECHCG. The experiment can be described thus: Greenhouse post-emergence foliar test (Example 72). It counts as in vivo. The note with it: Echinochloa crus-galli, 336 h, read-out: % Visual growth inhibition (ECHCG). The protocol:
as §1, §2

The test system of experiment [3] is AMATU. The experiment can be described thus: Field test, post-emergence foliar application (Example 70). It counts as in vivo, Amaranthus rudis. The note with it: glyphosate 1120 g a.i./ha, 2 weeks after application. As for the experimental part: (§3) Compound 1 and Compound 1 mixed with glyphosate were tested at different field locations to evaluate the herbicides efficacy for controlling weeds by post-emergence foliar application. All herbicide treatments were applied with a backpack CO2 pressurized sprayer at 190 L/ha volume. The applications were made after the weeds emerged and reached the 5 to 12 cm size range. Herbicide treatments included Compound 1 formulated as 10% emulsified concentrate, glyphosate as a commercial formulation (Roundup Power Max, Monsanto), or a mixture of Compound 1 and glyphosate products prepared as a “tank-mix” before the field application. All herbicide field spray solution included ammonium sulfate and concentrated crop oil adjuvant to a final solution concentration of 2% and 1% respectively. Different weeds species were assessed at the separate field locations. For each species, the herbicide efficacy to control weeds, assessed as % of dead plants relative to the untreated control plots, was evaluated at 2 weeks after the herbicide application to account for weed re-growth.

Experiment [4] relates to CHEAL. The experiment is described as above. Particulars: glyphosate 1120 g a.i./ha, 2 weeks after application. It counts as in vivo, Chenopodium album. The protocol:
as §3

Experiment [5] has as its system AMAPA. The description is as above. Particulars: Loc 13; glyphosate 1120 g a.i./ha; 2 weeks after application. Format: in vivo, Amaranthus palmeri. As for the experimental part:
as §3

The subject of the next experiment is ABUTH. The description is as above. Format: in vivo, Abutilon theophrasti. The note with it: Loc 13; glyphosate 1120 g a.i./ha; 2 weeks after application. As for the experimental part: as §3
The next experiment concerns SETFA. Described as above. The note with it: Loc 15; glyphosate 1120 g a.i./ha; 2 weeks after application. Format: in vivo, Setaria faberi. The protocol: as §3
Experiment [6] has as its system AMAPA. The experiment can be described thus: Greenhouse pre-emergence residual test (Example 73). It counts as in vivo, Amaranthus palmeri. The note with it: 17-21 DAT. As for the experimental part:
(§4) Compound 1 was tested at several doses for residual weed control efficacy by itself or in combination as a tank mix with commercial herbicides. The following commercial products were used in tank mix with a 10% active emulsifiable concentrate formulation of Compound 1: S-metolachlor (Dual Magnum®, Syngenta), mesotrione (Callisto®, Syngenta), pyroxasulfone (Zidua® SC, BASF), metribuzin (Tricor DF™, United Phosphorus, Inc).
(§5) Accordingly, weed seeds were planted in 2-inch pots containing custom field soil mix (sandy loam with 3.3% organic matter, pH 7.0) and covered with a fine layer of the same soil. Three replicate pots were treated with each compound. Treatment consisting of the above formulation excluding active compound was applied as a treatment control (TC). Pots were treated with the test compound solution in a laboratory spray chamber fitted with 8003 even fan nozzles calibrated to deliver 187-200 L ha^−1 at 269 kPa. All treatments included the following inert ingredients in the final formulation; 1% Crop Oil Concentrate (v/v) (AGRI-DEX, Helena Agri) and 2.5% Ammonium sulphate (w/v). Compound 1 was incorporated into the soil by simulating rainfall equivalent to 0.2 mm using the same track sprayer. Subsequently, pots were irrigated from the bottom until weed control evaluation. Pots were placed back in the greenhouse and evaluated for percentage visual growth and germination inhibition compared to TC 17-21 days after treatment (DAT). Complete growth inhibition is represented by 100%.

Experiment [7] has as its system AMATU. The description is as above. Format: in vivo, Amaranthus rudis. The note with it: 17-21 DAT. As for the experimental part:
as §4, §5

In the next experiment the test system is KCHSC. Described as above. The note with it: 17-21 DAT. It counts as in vivo, Bassia scoparia. The protocol:
as §4, §5

The subject of experiment [8] is CHEAL. The experiment is described as above. Format: in vivo, Chenopodium album. Particulars: 17-21 DAT. As for the experimental part: as §4, §5
Another experiment concerns DIGSA. The description is as above. It counts as in vivo, Digitaria sanguinalis. The note with it: 17-21 DAT. As for the experimental part:
as §4, §5

For the next experiment, the system named is ALOMY. The description is as above. The note with it: 17-21 DAT. It counts as in vivo, Alopecurus myosuroides. As for the experimental part:
as §4, §5

Experiment [9] deals with ECHCG. The description is as above. It counts as in vivo, Echinochloa crus-galli. Particulars: 17-21 DAT. The protocol: as §4, §5

In the case of `COc1c(Cl)ccc(Cl)c1C(=O)O` [dicamba, 3,6-dichloro-2-methoxybenzoic acid], the inhibition at 280 g/ha amounted to 74% with AMATU [1] (Dose 280 g a.i./ha, 14 DAT) and 5% in the experiment on ECHCG [2] (Dose 280 g a.i./ha, 14 DAT).
Consider `O=C(O)CNCP(=O)(O)O` [glyphosate], for which the “% dead AMATU” value in the experiment with AMATU [3] (Loc 11) is 88%; with AMATU [3] (Loc 12) it was 50%; in the experiment on AMATU [3] (Loc 14), 32%; in the experiment on AMATU [3] (Loc 15), 12%. The “% dead CHEAL” value in the experiment with CHEAL [4] (Loc 11) and in the experiment with CHEAL [4] (Loc 14) was 88% each time. For the same compound, in the experiment on AMAPA [5], the “% dead AMAPA” value was found to be 13%. In addition, in the experiment on ABUTH, the “% dead ABUTH” value is given as 85%. Besides, the “% dead SETFA” value with SETFA is 100%. For the same compound, the inhibition at 1000 g/ha with AMATU [1] stood at 60%. For the same compound, in the experiment with ECHCG [2], the inhibition at 860 g/ha amounted to 84%.
As to `CP(=O)(O)CCC(N)C(=O)O` (stereo not shown) [glufosinate], the figures for the inhibition at 450 g/ha with AMATU [1] and with ECHCG [2] were 96% and 41%, respectively.
As for `CCc1cccc(C)c1N(C(=O)CCl)[C@@H](C)COC` [S-metolachlor], the “Pre-emergence percent weed growth and germination inhibition AMAPA” value with AMAPA [6] (Dose 1000 g a.i./ha) is 65%. For the same compound, the “Pre-emergence percent weed growth and germination inhibition AMATU” value in the experiment with AMATU [7] (Dose 1000 g a.i./ha) is reported as 80%. Moreover, in the experiment on KCHSC (Dose 1000 g a.i./ha), the “Pre-emergence percent weed growth and germination inhibition KCHSC” value came out at 57%. In the experiment on CHEAL [8] (Dose 1000 g a.i./ha), the “Pre-emergence percent weed growth and germination inhibition CHEAL” value came to 50%. For the same compound, the “Pre-emergence percent weed growth and germination inhibition DIGSA” value with DIGSA (Dose 1000 g a.i./ha) is recorded as 80%. The “Pre-emergence percent weed growth and germination inhibition ALOMY” value in the experiment with ALOMY (Dose 1000 g a.i./ha) came to 30%. Moreover, the “Pre-emergence percent weed growth and germination inhibition ECHCG” value in the experiment with ECHCG [9] (Dose 1000 g a.i./ha) is 93%.
As to `CSc1nnc(C(C)(C)C)c(=O)n1N` [metribuzin], the inhibition at 200 g/ha was 20% in the experiment on AMAPA [6] (Amaranthus palmeri, pre-emergence, Dose 200 g a.i./ha, read-out: Pre-emergence percent weed growth and germination inhibition AMAPA); 65% in the experiment with AMATU [7] (Amaranthus tuberculatus, pre-emergence, Dose 200 g a.i./ha, read-out: Pre-emergence percent weed growth and germination inhibition AMATU); 100% in the experiment with KCHSC (Bassia scoparia, pre-emergence, Dose 200 g a.i./ha, read-out: Pre-emergence percent weed growth and germination inhibition KCHSC); 100% in the experiment on CHEAL [8] (Chenopodium album, pre-emergence, Dose 200 g a.i./ha, read-out: Pre-emergence percent weed growth and germination inhibition CHEAL); 13% in the experiment with DIGSA (Digitaria sanguinalis, pre-emergence, Dose 200 g a.i./ha, read-out: Pre-emergence percent weed growth and germination inhibition DIGSA); 12% in the experiment on ALOMY (Alopecurus myosuroides, pre-emergence, Dose 200 g a.i./ha, read-out: Pre-emergence percent weed growth and germination inhibition ALOMY). In addition, in the experiment with ECHCG [9] (Echinochloa crus-galli, pre-emergence, Dose 200 g a.i./ha, read-out: Pre-emergence percent weed growth and germination inhibition ECHCG), the inhibition at 200 g/ha was 12%.
Consider `O=C(O)COc1ccc(Cl)cc1Cl` [2,4-D acid, 2,4-dichlorophenoxyacetic acid], for which the results for the inhibition at 280 g/ha in the experiment with AMATU [1] and in the experiment with ECHCG [2] were 89% and 10%, respectively.
For the compound `CS(=O)(=O)c1ccc(C(=O)C2C(=O)CCCC2=O)c([N+](=O)[O-])c1` [mesotrione], the inhibition at 105 g/ha in the experiment with AMATU [1] (Dose 105 g a.i./ha, 14 DAT) was 61%; in the experiment on ECHCG [2] (Dose 105 g a.i./ha, 14 DAT) it was 95%. Moreover, the inhibition at 210 g/ha amounted to 53% in the experiment on AMAPA [6] (Amaranthus palmeri, pre-emergence, Dose 210 g a.i./ha, read-out: Pre-emergence percent weed growth and germination inhibition AMAPA); 75% with AMATU [7] (Amaranthus tuberculatus, pre-emergence, Dose 210 g a.i./ha, read-out: Pre-emergence percent weed growth and germination inhibition AMATU); 77% in the experiment with KCHSC (Bassia scoparia, pre-emergence, Dose 210 g a.i./ha, read-out: Pre-emergence percent weed growth and germination inhibition KCHSC); 100% in the experiment with CHEAL [8] (Chenopodium album, pre-emergence, Dose 210 g a.i./ha, read-out: Pre-emergence percent weed growth and germination inhibition CHEAL); 82% in the experiment on DIGSA (Digitaria sanguinalis, pre-emergence, Dose 210 g a.i./ha, read-out: Pre-emergence percent weed growth and germination inhibition DIGSA); 20% in the experiment on ALOMY (Alopecurus myosuroides, pre-emergence, Dose 210 g a.i./ha, read-out: Pre-emergence percent weed growth and germination inhibition ALOMY). Also, the inhibition at 210 g/ha with ECHCG [9] (Echinochloa crus-galli, pre-emergence, Dose 210 g a.i./ha, read-out: Pre-emergence percent weed growth and germination inhibition ECHCG) is 33%.
